One series concerns the target 5-HT1D binding site. Nature of the series: 5-HT1D binding site affinity (tritiated serotonin; method of Heuring and Peroutka with minor modifications). The following applies: in vitro. As to the method:
Determination of 5-HT1D binding properties was accomplished employing methodology such as that described by Heuring and Peroutka, J. Neurosci., 7(3), 1987, 894-903; with only minor modifications. In vitro IC50 (nM) test values were determined for the compounds of this invention employing tritiated serotonin.

The record followed here is patent US20090281114A1, “INDOLYLALKYL DERIVATIVES OF PYRIMIDINYLPIPERAZINE AND METABOLITES THEREOF FOR TREATMENT OF ANXIETY, DEPRESSION, AND SEXUAL DYSFUNCTION” (Fabre-Kramer Pharmaceuticals, Inc., priority 2008, published 2009).

By melting point is commonly meant the temperature of the solid-liquid transition. One may read the IC50 as the concentration that gives 50% inhibition.

`COc1cncnc1N1CCN(CCCc2c[nH]c3c(F)ccc(F)c23)CC1` [Example 75] returned a melting point of 160 to 165 °C. This compound also displayed an IC50 at 5-HT1D binding site of 5.1 nM.
